Consider seven compounds from patent publication US6011008A, “Conjugates of biologically active substances” (priority 1998, dated 2000).

Data set [1] in a line: In vitro release (dialysis tubing method). It counts as physicochemical. Particulars: for drug released from the dialysis tube: after 5 hours, buffer pH 7.4, 37° C.; for release of the conjugated drug: after 24 hours, buffer pH 7.4 at 37° C. The method, then: A solution of the Schiff base or the amine conjugates (100 mg in 5 ml phosphate buffer pH7.4) was placed into a cellulose dialysis tubing of 12,000 MW cut off and the bag was placed into a 100 ml. buffer solution at 37° C. The drug release to the solution was monitored by UV absorption at 280 nm, unless otherwise indicated.
The release of DOX from the AG conjugates was determined using dialysis tubing as described above. The DOX-AG imine conjugate, the DOX-AG amine conjugate and a solution of the native drug were studied. The amount of DOX found in the solution was 2, 5, 8, 10 and 12% of the total dose after 2, 4, 7, 12 and 32 hours, respectively.
The Mitomycin release into the solution was measured as described above. The amount of drug found in the solution was 1, 2, 4, 5 and 8% of the total dose after 2, 4, 7, 12 and 32 hours, respectively.
In vitro release of Somatostatin was determined as described in the Methods and the somatostatin concentration was determined by the Folin-Lowry method for peptide analysis^(10).
Insulin was conjugated to oxidized AG (50 mg with 100 mg pure oxidized AG) using the method described above for somatostatin. The conjugation yield was about 75% as determined by nitrogen analysis and the Folin-Lowry method. The Schiff base derivative released about 25% of its drug content after 24 hours in phosphate buffer solution at […].

The next data set deals with Escherichia coli. As to conditions: Escherichia coli agar plates, after 24 hours of incubation.
For the next data set, the system named is E. Coli. As to the kind of experiment: Antimicrobial activity, filter paper on seeded agar plate. It counts as cell-based. Particulars: 24 hours at 37° C., 6 mm filter paper, equivalent amounts of the drug. The method, then: (§1) The antimicrobial activity of these conjugates was determined as described above. Saline solutions of equivalent amounts of the drug in free form or the imine or amine AG conjugates were absorbed onto a circular filter paper (6 mm in diameter) and placed on a seeded agar plate with Staphylococcus Aureus (10^5 /ml) and E. Coli incubated for 24 hours at 37° C. […] Similar results were obtained for the Polymyxin derivatives.

In a further data set the test system is Staphylococcus Aureus. The description is as above. It counts as cell-based. As to conditions: Staphylococcus Aureus (10^5 /ml), 24 hours at 37° C., 6 mm filter paper, equivalent amounts of the drug. The method, then: as §1

Experimental for Escherichia coli: The antimicrobial activity of the conjugates was assayed by a cup method^(9) (agar plate method) using Escherichia coli agar plates and measuring the zone of growth inhibition.

For `COc1cccc2c1C(=O)c1c(O)c3c(c(O)c1C2=O)C[C@@](O)(C(=O)CO)C[C@@H]3O[C@H]1C[C@H](N)[C@H](O)[C@H](C)O1` [DOX, Doxorubicin], the “drug released from the dialysis tube” value in data set [1] was 90%.

For the compound `CO[C@@]12[C@H](COC(N)=O)C3=C(C(=O)C(C)=C(N)C3=O)N1C[C@@H]1N[C@@H]12` [Mitomycin C], the inhibition zone with Escherichia coli is reported as > 10 mm.

With `NC[C@H]1O[C@H](O[C@H]2[C@H](O)[C@@H](O[C@H]3O[C@H](CO)[C@@H](O)[C@H](N)[C@H]3O)[C@H](N)C[C@@H]2N)[C@H](N)C[C@@H]1O` [tobramicin], the inhibition zone in the data set with E. Coli and in the data set on Staphylococcus Aureus was > 10 mm throughout.

Turning to “Insulin-AG Schiff base derivative: Insulin conjugated to pure oxidized AG, Schiff base”, in data set [1] (after 24 hours in phosphate buffer solution at […].), the “release of drug content” value is “about 25%”.

Regarding “Somatostatin-AG amine conjugate: Somatostatin-AG Schiff base hydrogenated to the amine conjugate using NaBH4”, the “release of the conjugated drug” value in data set [1] is “did not release any”.

As to “Somatostatin-AG imine conjugate: Somatostatin conjugated to pure oxidized AG via imine bond”, in data set [1], the “drug released from the dialysis tube” value was “about 5%” and the “release of the conjugated drug” value is on record as ~18%.

With gentamicin, the inhibition zone in the data set with E. Coli and in the data set on Staphylococcus Aureus was > 10 mm in each case.
